We go through 66 compounds from PubChem BioAssay AID464 (The Scripps Research Institute Molecular Screening Center, 2006).

The source made the active and inactive calls.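 Rule for the calls: active = Compounds that kill half the cells at a concentration of 5 micromolar or below, from the fitted or estimated CC50; inactive = CC50 above 5 micromolar.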

For the assay, the system named is Jurkat E6.1 viability, ATP luminescence, 48 h. In words: viability loss in Jurkat T cells – cell-based, ATP luminescence, 48 h, 60K MLSMR, cytotoxicity control, dose response (AID 464).
As usually defined, the CC50 is the concentration giving 50% cytotoxicity. Consider `COc1cc(C2C(C#N)=C(C)NC3=C2C(=O)c2ccccc23)cc(OC)c1OC` (stereo unspecified), for which the CC50 is 3.48 µM.

As to `O=C(c1ccc2c(c1)ncn2C1CCCCC1)N1CCC2(CC1)OCCO2`, the CC50 is 5.19 µM (inactive). As for `COc1ccccc1-n1nnnc1S(=O)(=O)Cc1ccc(Cl)cc1`, the figure is 3.3 µM; as for `C=CCn1c(SCc2c(C)noc2C)nc2cc(C(=O)O)ccc2c1=O`, 3.4 µM. As for `COc1ccc(NC(=O)c2cc(-c3ccccc3OC)on2)cc1`, the figure is 1.85 µM. With `N=c1c2c(n(Cc3ccc(Cl)cc3)c3c1CCC3)CCC2` the figure was 2.06 µM; with `COc1cccc(N2CCN(C(=O)c3[nH]c(C)c(C(C)=O)c3C)CC2)c1`, 1.74 µM; with `Cc1noc(C)c1COc1cccc(C(=O)OCC(=O)N2CC(=O)Nc3ccccc32)c1`, 6.33 µM (inactive).

Regarding `O=C(CSc1nnnn1-c1ccc2c(c1)OCO2)NCc1ccccc1`, the CC50 is > 4.4 µM (inactive).

For the compound `Oc1cccc2ccc(Nc3ccccn3)nc12`, the CC50 is 1.97 µM. As to `O=C(C1CC1)N1CCC(c2nc(-c3ccc(S(=O)(=O)NCC4CCCO4)cc3)no2)CC1` (stereo unspecified), the CC50 was 9.95 µM (inactive). With `Cc1cc(C(=O)CSc2nnc(-c3cccc(F)c3)n2N)c(C)n1Cc1ccc2c(c1)OCO2` the figure was 9.37 µM (inactive). With `Cc1nc(C)c(C(=O)Nc2ccc(Oc3ccccc3)cc2)o1` the figure was 19.4 µM (inactive); with `C=CCn1c(O)c(C(C)=NCc2cc(OC)cc(OC)c2)c(=O)[nH]c1=O`, 7.66 µM (inactive); with `COc1ccc(-n2nnnc2-c2cccc(OC)c2)cc1`, 0.195 µM. With `CCN(C1CCCCC1)S(=O)(=O)c1ccc(S(=O)(=O)NCc2ccncc2)cc1` the figure was 5.32 µM (inactive); with `Cn1c(C(=O)NCc2cccs2)cc2oc3ccccc3c21`, > 40 µM (inactive).

Turning to `CCOC(=O)C1=C(N)n2c(s/c(=C\c3ccco3)c2=O)=C(C(=O)OCC)C1c1ccco1` (stereo unspecified), the CC50 is 6.77 µM (inactive).

For `COc1ccc(CC(=O)Nc2cccc(-c3nnc(-c4ccccc4)o3)c2)cc1OC`, the CC50 was 15.8 µM (inactive). As for `COC(=O)c1ccc(C)c(NS(=O)(=O)c2ccc3c(c2)OCCO3)c1`, the figure is 0.504 µM.

In the case of `O=C(NCCSc1c[nH]c2ccccc12)c1ccc(Br)o1`, the CC50 was > 40 µM (inactive). With `O=S(=O)(CCSc1nc2ccccc2o1)c1nc2ccccc2s1` the figure was 7.25 µM (inactive). With `CCCCN(C)S(=O)(=O)c1ccc(C(=O)Nc2nnc(-c3cccs3)o2)cc1` the figure was 14.1 µM (inactive).

For `CC(=O)Nc1ccc(S(=O)(=O)n2cnc3cc(C)c(C)cc32)cc1`, the CC50 was 24.8 µM (inactive).

Consider `CN(C)c1ccc(C(=O)c2ccc(N(C)C)c(N)c2)cc1N`, for which the CC50 is 8.53 µM (inactive). With `Cc1cccc(-n2ncc3c(NCc4ccccc4)ncnc32)c1` the figure was 3.86 µM; with `Cc1ccc2c(CC(=O)NCc3ccco3)coc2c1C`, 7.99 µM (inactive).

In the case of `CCCCn1c2c(c(=N)c3c1CCC3)CCC2`, the CC50 was 3.9 µM. Consider `CCCOc1ccc2ccccc2c1/C=N/n1c(C)nnc1-n1nc(C)cc1C`, for which the 50% cytotoxic concentration (CC50) was 1.96 µM. With `CCOC(=O)CCS(=O)(=O)c1nc(-c2ccccc2)cc(C(F)(F)F)n1` the figure was 4.58 µM. With `Cc1ccnc(SCC(=O)Nc2sc3c(c2C#N)CCCC3)n1`, the CC50 was > 40 µM (inactive). As for `Cc1ccc(-n2c(O)c(C=Nc3ccccc3N)c(=O)[nH]c2=O)cc1C`, the figure is > 13 µM (inactive). As for `Cc1cc(C(=O)OCC(=O)NCc2ccco2)c(C)n1-c1ccc(F)cc1`, the figure is 2.34 µM; as for `Cc1cc(N2CCN(C/C=C/c3ccccc3)CC2)n2ncnc2n1`, > 40 µM (inactive). As for `O=C(Cc1n[nH]c(=O)c2ccccc12)OCC(=O)c1ccc2c(c1)OCCO2`, the figure is 3.4 µM; as for `COCCNc1nc2c(c(=O)n(C)c(=O)n2C)n1Cc1cccc(C)c1`, 25.6 µM (inactive). `CCOc1ccc(N(CC(=O)Nc2ccccc2C)S(=O)(=O)c2c(C)noc2C)cc1`: the 50% cytotoxic concentration (CC50) is 1.35 µM.

Regarding `O=C(Nc1ccccc1C(F)(F)F)c1cc(-c2ccccc2O)on1`, the CC50 was > 40 µM (inactive).

For the compound `O=C(C1CCN(S(=O)(=O)c2cccc3cccnc23)CC1)N1CCN(c2ccc(Cl)cc2)CC1`, the CC50 was 19.5 µM (inactive). As for `Cc1ccc(Cl)cc1N1CCN(C(=O)C2CCN(c3nnc(-n4cccc4)s3)CC2)CC1`, the figure is > 40 µM (inactive); as for `COc1cc(NC(=O)c2ccc3c(c2)OCO3)ccc1NC(=O)C(C)C`, 2.19 µM; as for `CCOC(=O)c1[nH]c(C)c(C(=O)Nc2ccccc2C)c1C`, 0.63 µM. As for `CCCNS(=O)(=O)c1ccc(OCC(=O)N2CCN(Cc3ccc4c(c3)OCO4)CC2)cc1`, the figure is 7.96 µM (inactive). On to `COC(=O)c1[nH]c2c(c1C)C(=O)CC(c1cc(OC)ccc1OC)C2` (stereo unspecified), for which the CC50 was 3.89 µM. With `CCOC(=O)c1ccc(Oc2cc(C)nc(SC)n2)cc1` the figure was 7.92 µM (inactive); with `COCCCN1C(=O)c2[nH]nc(-c3ccccc3O)c2C1c1cccc(Cl)c1` (stereo unspecified), 3.39 µM.

As for `O=C1CN=C(c2cccs2)c2c(sc3c2CCCC3)N1`, the CC50 is 7.46 µM (inactive). Turning to `CCOC(=O)C1CCCN(C(=O)c2cc3c(-c4cccc(OC)c4)nn(C)c3s2)C1` (stereo unspecified), the CC50 was 9.76 µM (inactive). With `Cc1ccc(Oc2ccc(S(=O)(=O)N3CCOCC3)cc2C(N)=O)c(-n2nc3ccccc3n2)c1`, the CC50 was 2.31 µM. With `Cc1c(C(=O)N2CCCCC2)oc2ccc(S(=O)(=O)N3CC(C)CC(C)C3)cc12` (stereo unspecified) the figure was 15.9 µM (inactive); with `COc1ccc(CC(=O)Nc2cccc(-c3nnc(-c4cccc(C)c4)o3)c2)cc1OC`, 7.1 µM (inactive). As for `Cc1cc(C(=O)N2CCN(c3cccc(Cl)c3)CC2)c(C)o1`, the figure is 4.95 µM; as for `CC1=C(C)CS(=O)N(S(=O)(=O)c2ccc(Cl)cc2)C1` (stereo unspecified), 2.96 µM. As for `CC(=O)Nc1ccc(S(=O)(=O)N2CCCc3ccccc32)cc1`, the figure is 3.07 µM; as for `COC(=O)C1=C(N)Oc2cc(N(C)C)ccc2C1c1ccccc1OC` (stereo unspecified), 2.6 µM. For `O=C(CSc1nnnn1C1CC2CCC1C2)Nc1ccnc2ccccc12` (stereo unspecified), the CC50 is 0.092 µM. As for `CC(C)C(=O)Nc1ccc(C(=O)NCc2cccnc2)cc1`, the CC50 was 3.87 µM. As for `CCCSc1nnc(Sc2nnnn2-c2ccccc2)s1`, the figure is 1.28 µM. As for `O=C(CCNc1ccc(F)c(Cl)c1)c1ccco1`, the figure is > 13 µM (inactive); as for `CCCc1cc(C(=O)Nc2cc(Br)ccc2O)no1`, > 40 µM (inactive). As for `O=C(c1cccc(C(=O)N2CCN(c3ccc(F)cc3)CC2)c1)N1CCN(c2ccc(F)cc2)CC1`, the figure is > 40 µM (inactive). For `CCN1CCN(c2ncc3c(n2)CC(c2cc(OC)c(OC)c(OC)c2)CC3=O)CC1` (stereo unspecified), the CC50 was 2.26 µM. With `CCOC(=O)c1[nH]c(C)c(C(=O)Nc2ccc(C)cc2C)c1C` the figure was 1.64 µM; with `CCn1c2ccccc2c2cc(Nc3cc(C)nc4ncnn34)ccc21`, 0.109 µM; with `O=C(Nc1ccccc1)N1CCC(c2nc(-c3ccc(S(=O)(=O)N4CCOCC4)cc3)no2)CC1`, > 40 µM (inactive). With `COc1cc(-c2nnc3n2N=C(c2ccccc2)CS3)cc(OC)c1OC` the figure was 0.392 µM.
